{
  "source": "patent EP4737445A1",
  "about": "“NOVEL SATURATED HETEROCYCLE-SUBSTITUTED HETEROARYL-CARBONOHYDRAZONOYL DICYANIDE COMPOUND AND USE THEREOF” (Korea Institute of Science and Technology, priority 2023, dated 2025)",
  "type_in_all_cases": "in vivo",
  "key": {"tau [1]": {"target": "T1, tau (Homo sapiens, UniProt P10636, P618L)", "T1 construct": "BiFC fluorescent-protein fragments (two complementary halves); from tissue; host or cells: brain of TauP301L-BiFC transgenic mice", "T1 sequence (P10636 1-441 isoform P10636-8 P301L)": "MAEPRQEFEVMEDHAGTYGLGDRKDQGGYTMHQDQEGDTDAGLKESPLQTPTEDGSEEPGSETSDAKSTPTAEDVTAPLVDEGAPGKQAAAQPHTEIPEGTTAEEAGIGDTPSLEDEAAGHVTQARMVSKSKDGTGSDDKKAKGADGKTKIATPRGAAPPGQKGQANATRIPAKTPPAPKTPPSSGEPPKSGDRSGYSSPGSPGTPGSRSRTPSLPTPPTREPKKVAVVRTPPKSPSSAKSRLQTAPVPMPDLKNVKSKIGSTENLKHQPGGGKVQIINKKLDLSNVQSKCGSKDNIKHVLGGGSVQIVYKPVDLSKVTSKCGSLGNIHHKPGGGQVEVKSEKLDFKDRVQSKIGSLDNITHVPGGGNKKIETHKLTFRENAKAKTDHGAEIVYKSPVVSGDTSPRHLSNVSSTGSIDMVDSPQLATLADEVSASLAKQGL", "assay": "Tau-BiFC fluorescence imaging of brain tissue (tau oligomer/aggregate formation)", "settings": "TauP301L-BiFC mice; oral 10 mg/kg, 19 weeks; vehicle = 100%", "protocol": "(§1) After oral administration of Compounds 6, 16, and 20 and completion of behavioral experiments, 13.2-month-old TauP301L-BiFC mice were sacrificed to proceed with brain tissue extraction and [2] brain lysate separation and purification. • [1] First, brain tissue extraction, BiFC fluorescence imaging of brain tissue, and tau phosphorylation antibody immunofluorescence were performed through the following process. TauP301L-BiFC mice were perfused with 0.9% saline and fixed with PBS (pH 7.4) solution containing 4% paraformaldehyde. The brain was extracted and fixed in PBS containing 4% paraformaldehyde at 4°C for 48 to 72 hours. For cryoprotection, the brain was transferred to PBS containing 30% sucrose solution and stored at 4°C until it sank. For frozen sectioning, the brain was immersed in O.C.T (Tissue-TEK) and frozen, and then continuously cut using a brain tissue sectioner. Tissue sections with a thickness of 30 µm were stored in PBS containing 0.05% sodium azide at 4°C.\nBrain tissue sections (n=10 per group) were placed on slides, stained with Sudan Black B solution (70% ethanol containing 0.05% Sudan Black B) for 10 minutes to reduce autofluorescence, washed 3 times with PBS containing 0.1% Triton X-100, and then washed with distilled water. For nuclear staining, brain tissue sections were stained with Hoechst (0.5 µg/mL) for 30 minutes. BiFC fluorescence (λex=460-490 nm and λem=500-550 nm) images were acquired using Axio Scan.Z1 (ZEISS). For quantitative analysis, the average BiFC-fluorescence intensity was measured in the somatosensory cortex (layer V) and hippocampus CA1, and the habenular region was used as a control region to reduce background fluorescence differences between brain samples. ImageJ software (NIH) was used to mark regions of interest and calculate fluorescence intensity values, and the data were expressed as the average fluorescence intensity and standard deviation of brain tissue images from 10 mice per group.\nAs a result of Tau-BiFC fluorescence imaging of four regions of total brain tissue (hippocampus (CA1), somatosensory cortex, cerebellum, brainstem), the degree of Tau-BiFC fluorescence appearing as tau aggregation early oligomer formation and aggregate formation was as follows: • (1) Hippocampus (CA1), vehicle = 100%, #20= 79%, p<0.05, #6= 80%, p<0.05, #16= 72%, p<0.001. • (2) Sensory cortex (SCTX), vehicle = 100%, #20= 72%, p<0.05, #6= 73%, p<0.05, #16= 66%, p<0.01. • (3) Cerebellum (CB), vehicle = 100%, #20= 64%, p<0.05, #6= 68%, ns, #16= 76%, n.s. • (4) Brain stem, vehicle = 100%, #20= 60%, p<0.05, #6= 62%, p<0.05, #16= 60%, p<0.05."}, "tau [2]": {"target": "T1, tau", "assay": "AT8 (pS202/T205) phospho-tau immunofluorescence of brain tissue", "settings": "TauP301L-BiFC mice; oral 10 mg/kg, 19 weeks; vehicle = 100%", "protocol": "as §1\nTo measure not only tau oligomer formation but also the degree of tau phosphorylation observed in the tau pathology process, immunofluorescence staining using a tau phosphorylation antibody was performed. For brain tissue immunofluorescence image analysis, brain tissue slices (n=10 per group) were stained with AT8 (pS202/T205) antibody (1:200), and the primary antibody was detected using Alexa Fluor 633-labeled anti-mouse secondary antibody (1:500). Fluorescence images (λex=620-640 nm and λem=650-700 nm) were acquired using Axio Scan.Z1 (ZEISS).\nThe AT8 fluorescence imaging results of a total of two brain tissue regions (hippocampus (CA1), somatosensory cortex) were as follows: • (1) Hippocampus (CA1), vehicle = 100%, #20= 72%, p<0.01, #6= 81%, p<0.05, #16= 76%, p<0.01. • (2) Sensory cortex (SCTX), vehicle = 100%, #20= 54%, p<0.0001, #6= 63%, p<0.001, #16= 57%, p<0.0001."}, "tau [3]": {"target": "T1, tau", "assay": "Total tau immunoblot of RIPA-insoluble brain lysates", "settings": "TauP301L-BiFC mice, compared to vehicle, numbers not readable (formula image)", "protocol": "[2] To verify the tau pathology inhibitory efficacy of the drug confirmed through brain tissue imaging via brain lysate immunoblot, brain lysates were separated and purified, and immunoblot using tau antibody was performed in soluble and insoluble fractions. The brain was weighed, and RIPA lysis buffer containing the corresponding dose of protease and phosphatase inhibitors was added to the brain tissue. The tissue was then disrupted using a homogenizer and incubated at 4°C for 2 hours, and then centrifuged at 13,200 rpm at 4°C for 20 minutes. After centrifugation, the supernatant was collected as a RIPA-soluble fraction and stored at -80°C. To prepare the RIPA-insoluble fraction, the remaining pellet was washed once with RIPA lysis buffer containing 1 M sucrose, and then 2% SDS solution (1 mL per 1 g of tissue) was added and incubated at room temperature for 1 hour. Thereafter, the mixture was centrifuged at 13,200 rpm for 1 minute at room temperature, and the supernatant was collected as a RIPA-insoluble fraction and stored at -80°C.\nFor tau immunoblot analysis, 20 µg of brain tissue RIPA-soluble sample was separated on a 10% SDS-PAGE gel and transferred to a PVDF membrane, and RIPA-insoluble samples were diluted 10-fold in 2% SDS solution and 20 µL of each sample was loaded on an SDS-PAGE gel. The total tau and phosphorylated tau levels were detected by Tau5, which is an anti-tau antibody, and pS199 and pS396, which are anti-phosphorylated tau antibodies. ImageJ software (NIH) was used to quantify band intensity.\nThe results of total tau immunoblot using RIPA-insoluble brain lysates were as follows: [formula]"}},
  "data": [
    {"compound": "CC1COCCN1c1nc2ccc(NN=C(C#N)C#N)cc2o1", "note": "(stereo not drawn) [Compound 16, (2-(3-methylmorpholino)benzo[d]oxazol-6-yl)carbonohydrazonoyl dicyanide]", "values": [
      {"measurement": "Tau-BiFC fluorescence, Brain stem", "setting": "tau [1]", "value": 60, "unit": "%"},
      {"measurement": "Tau-BiFC fluorescence, Cerebellum (CB)", "setting": "tau [1]", "value": 76, "unit": "%"},
      {"measurement": "Tau-BiFC fluorescence, Hippocampus (CA1)", "setting": "tau [1]", "value": 72, "unit": "%"},
      {"measurement": "Tau-BiFC fluorescence, Sensory cortex (SCTX)", "setting": "tau [1]", "value": 66, "unit": "%"},
      {"measurement": "AT8 fluorescence, Hippocampus (CA1)", "setting": "tau [2]", "value": 76, "unit": "%"},
      {"measurement": "AT8 fluorescence, Sensory cortex (SCTX)", "setting": "tau [2]", "value": 57, "unit": "%"},
      {"measurement": "total tau immunoblot, insoluble tau aggregate formation", "setting": "tau [3]", "value": "inhibition of insoluble tau aggregate formation"}
    ]},
    {"compound": "Cn1c(N2CCOCC2)nc2cc(NN=C(C#N)C#N)ccc21", "note": "[Compound 6, (1-methyl-2-morpholino-1H-benzo[d]imidazol-5-yl)carbonohydrazonoyl dicyanide]", "values": [
      {"measurement": "Tau-BiFC fluorescence, Brain stem", "setting": "tau [1]", "value": 62, "unit": "%"},
      {"measurement": "Tau-BiFC fluorescence, Cerebellum (CB)", "setting": "tau [1]", "value": 68, "unit": "%"},
      {"measurement": "Tau-BiFC fluorescence, Hippocampus (CA1)", "setting": "tau [1]", "value": 80, "unit": "%"},
      {"measurement": "Tau-BiFC fluorescence, Sensory cortex (SCTX)", "setting": "tau [1]", "value": 73, "unit": "%"},
      {"measurement": "AT8 fluorescence, Hippocampus (CA1)", "setting": "tau [2]", "value": 81, "unit": "%"},
      {"measurement": "AT8 fluorescence, Sensory cortex (SCTX)", "setting": "tau [2]", "value": 63, "unit": "%"},
      {"measurement": "total tau immunoblot, insoluble tau aggregate formation", "setting": "tau [3]", "value": "inhibition of insoluble tau aggregate formation"}
    ]},
    {"compound": "N#CC(C#N)=NNc1ccc2nc(N3C4CCC3COC4)oc2c1", "note": "[Compound 20, (2-(3-oxa-8-azabicyclo[3.2.1]octan-8-yl)benzo[d]oxazol-6-yl)carbonohydrazonoyl dicyanide]", "values": [
      {"measurement": "Tau-BiFC fluorescence, Brain stem", "setting": "tau [1]", "value": 60, "unit": "%"},
      {"measurement": "Tau-BiFC fluorescence, Cerebellum (CB)", "setting": "tau [1]", "value": 64, "unit": "%"},
      {"measurement": "Tau-BiFC fluorescence, Hippocampus (CA1)", "setting": "tau [1]", "value": 79, "unit": "%"},
      {"measurement": "Tau-BiFC fluorescence, Sensory cortex (SCTX)", "setting": "tau [1]", "value": 72, "unit": "%"},
      {"measurement": "AT8 fluorescence, Hippocampus (CA1)", "setting": "tau [2]", "value": 72, "unit": "%"},
      {"measurement": "AT8 fluorescence, Sensory cortex (SCTX)", "setting": "tau [2]", "value": 54, "unit": "%"},
      {"measurement": "total tau immunoblot, insoluble tau aggregate formation", "setting": "tau [3]", "value": "inhibition of insoluble tau aggregate formation"}
    ]}
  ]
}
